{"source": "patent US20070037873A1", "about": "“Airway remodeling treatments” (priority 2005, published 2007)", "key": {"[1]": {"test_system": "human ASM cells", "assay": "Fura-2 calcium transients in agonist-stimulated ASM cells", "type": "cell-based", "settings": "ajulemic acid 10 μM or 20 μM for 10 minutes, F340/F380 ratio, p<0.01 versus control", "procedure": "Human airway smooth muscle (ASM) cells were obtained and passaged as described in Example 1. Subconfluent ASM cells in 96-well plates were washed 3 times in a modified Kreb-Ringer-Henseleit solution (KRH) containing 115 mM NaCl, 5 mM KCl, 1 mM KH2PO4, 1 mM MgSO4, 25 mM N-2-hydroxyethylpiperazine-N′-2-ethanesulfonic acid (HEPES), 15 mM glucose and 2 mM CaCl2. Cells were incubated in 1.0 μM fura 2-AM and pluronic F-127 (0.004%) for 60 minutes at room temperature. See, e.g., Wang et al., Am. J. Phys.; 272:C1151-C1159, 1997. After washing 3 times with KRH, cells were covered with 200 μl KRH and placed on the microscope stage. Reagents were added directly to the wells during calcium recordings. Fura 2-AM and F-127 were from Molecular Probes, Inc. (Eugene, Oreg.). Other chemicals were from Sigma (St. Louis, Mo.).\nFluorescence was induced using computer-controlled 337 and 380 nm UV light generated by a nitrogen laser and a nitrogen laser-pumped dye laser, respectively (Laser Science, Franklin, Mass.). See, e.g., Ethier et al., Cell Calcium, 32:31-38 2002. […]\nBackground from a cell free region of the cover glass was subtracted prior to data acquisition and then an 11×11 pixels area was selected over each cell. […] Fluorescence emissions stimulated by alternating pulses of ˜340 and 380 nm light were recorded and their ratios plotted. […]"}, "[2]": {"test_system": "NF-KB", "assay": "EMSA of NF-KB binding in nuclear extracts of FLS cells", "type": "cell-based, human", "settings": "10 μM ajulemic acid for 1 hour", "from_the_text": "Human fibroblast-like synovial (FLS) cells were isolated from synovial tissue or synovial fluid of patients with inflammatory arthritis (4 RA, 1 psoriatic arthritis) essentially as described (Stebulis et al., J. Rheumatol. 32:301-06, 2005). Briefly, synovial tissue obtained at the time of joint replacement surgery was minced and plated in tissue culture dishes with growth medium (MEM with 15% FBS, 1% penicillin/streptomycin solution, 1% nonessential amino acids). Synovial fluid was collected in heparinized syringes, then centrifuged at 1200 rpm for 15 min. The cell pellet was resuspended in growth medium, then plated in tissue culture flasks. After 2-4 days, primary cultures were washed with PBS to remove tissue fragments and nonadherent cells. FLS were incubated at 37° C. under 5% CO2 and passaged to 6-well tissue culture plates (split 1:3) when they reached confluence. Passages 2 through 8 were used for experiments.\nExperiments were done on FLS rested overnight in low serum medium (MEM/2% FBS). Medium was replaced before beginning the experiments. Cells were treated with 10 μM ajulemic acid for 1 hour then stimulated with 1 ng/ml TNF-α or left unstimulated. Controls were vehicle (0.3% DMSO) treated cells. […] Gels were scanned and analyzed using ADOBE® software for PC."}, "[3]": {"test_system": "Human airway smooth muscle (ASM) cells", "assay": "Human ASM cell proliferation (MTT) after TNF-α stimulation", "type": "cell-based", "settings": "ajulemic acid 0-30 μmoles, 60 minutes, then 1 ng/ml TNF-α for 48 hours, FIG. 1", "procedure": "Human airway smooth muscle (ASM) (also known as human bronchial smooth muscle (HBSM)) cells were obtained cryopreserved from Cambrex Bio Science (Walkersville, Md.) at passage 3. See, Ethier and Madison, Cell Calcium, 32:31-38 (2002) and Zhong et al., Am. J Respir Cell Mol. Biol., 30:118-125 (2004). Cultures were characterized as smooth muscle cells by positive immunostaining for smooth muscle actin and negative for Factor VIII. Cells were seeded and grown in smooth muscle basal medium (SMBM, Cambrex Bio Science) supplemented with 5% fetal bovine serum, 5 μg/ml insulin, 0.5 ng/ml epidermal growth factor, 2 ng/ml fibroblast growth factor, gentamicin, and amphotericin. Cells were maintained at 37° C. in a humidified atmosphere (5% CO2), fed every 48 hours, and passaged when confluent. Shortly after passaging, ajulemic acid (synthesized by Organix, Inc., Woburn, Mass.) was added to growth media to a concentration of 0-30 μmoles. Cells were incubated for 60 minutes, and then stimulated with 1 ng/ml TNF-α for 48 hours. After 48 hours, cell proliferation was evaluated using the Cell Proliferation Kit I (MTT) from Roche Diagnostics (Indianapolis, Ind.), which provides a measure of cell number as a function of optical density."}, "[4]": {"test_system": "IK-B", "assay": "Western blot of IK-B phosphorylation in TNF-α stimulated FLS cells", "type": "cell-based, human", "settings": "FIG. 3", "procedure": "FLS cells were collected from human synovial fluid in heparinized syringes, then centrifuged at 1200 rpm (260 g) for 15 minutes. FLS cells are used herein as models of pulmonary fibroblasts and/or myofibroblasts. The resulting cell pellet was resuspended in 7 ml of growth medium (Dulbecco's Minimal Essential Medium with 15% heat-inactivated fetal bovine serum (FBS), 1% nonessential amino acids, 1% penicillin/streptomycin solution) and plated in 25 ml tissue culture flasks. Cultures were incubated at 37° C., under 5% CO2 for 24 to 48 hours after which medium was aspirated and cultures were washed with PBS to remove nonadherent cells. Growth medium was replaced every 3 to 4 days. After 10 to 14 days, adherent cells were harvested by trypsinization, washed, and transferred to 6-well tissue culture plates in fresh growth medium. FLS cells were passaged (split 1:3) at confluence, generally every 10 to 14 days.\nFLS cells at passage 2 through 6 were (i) untreated, (ii) treated with 1-30 μM of ajulemic acid in growth media, (iii) treated with 1 ng/ml of TNF-α in growth media, or (iv) treated with a combination of 1-30 μM of ajulemic acid and 1 ng/ml TNF-α for 10 minutes or 45 minutes. Cells were harvested and washed several times with PBS. Whole cell lysates were prepared in hypotonic HEPES buffer (7.45 g KCl/100 ml H2O; 3.80 g EGTA/100 ml H2O;0.87 g PMSF/500 ml H2O; 1.54 g DTT/10 ml H2O). […]"}, "[5]": {"test_system": "MMP-1", "assay": "MMP-1 mRNA Northern blot in stimulated FLS cells", "type": "cell-based, human", "settings": "FLS treated 60 minutes with AjA, then 10 ng/mL TNFα+1 ng/mL GMCSE for 4 hours; FIG. 4", "procedure": "Human fibroblast-like synovial cells (FLS) were obtained from synovial tissue or synovial fluid, and grown to confluence in 6 well tissue culture plates. Cells were treated or not for 60 minutes with AjA, then stimulated with 10 ng/mL TNFα+1 ng/mL GMCSE for 4 hours. MMP-1 mRNA content measured by Northern blot analysis.\nCells were harvested and resuspended in TRIZOL® solution (GIBCO-BRL) to extract total cellular RNA. The RNA was resuspended in diethylpyrocarbonate (DEPC)-treated water. Total RNA (15 μg) was separated by electrophoresis in 1% agarose/17.6% formaldehyde gels. The RNA was transferred overnight from the denaturing gel onto Hybond-N^+ (Amersham Pharmacia Biotech Inc., Piscataway, N.J.) by capillary action using […] buffer ([…]). The RNA was cross-linked to the filter by ultraviolet irradiation for 20 seconds using a UV Crosslinker (Spectronics Corporation, Westbury, N.Y.) and the blots were hybridized with a solution of 5×SSC, 5× Denhardt's solution, 0.5% SDS, and 10 mg/ml sonicated salmon sperm DNA for 5 hours at 65° C., and 10^7 cpm/ml radio-labeled cDNA generated by random priming with ^32P-dCTP ([…], NEN, Boston, Mass.). Probes specific for the MMP-1 gene were heat denatured and added to the prehybridization buffer for hybridization overnight at 65° C. […]"}}, "data": [{"smiles": "CCCCCCC(C)(C)c1cc(O)c2c(c1)OC(C)(C)[C@@H]1CC=C(C(=O)O)C[C@@H]21", "note": "[ajulemic acid, 1′,1′dimethylheptyl-Δ8-THC-11-oic acid]", "values": [{"measurement": "calcium transients, histamine stimulated", "setting": "[1]; histamine", "result": "suppressed calcium transients"}, {"measurement": "calcium transients, thrombin stimulated", "setting": "[1]; thrombin", "result": "suppressed calcium transients"}, {"measurement": "reduction of TNF-α induced NF-KB activation (binding to oligonucleotide corresponding to an NF-KB binding site)", "setting": "[2]; then 1 ng/ml TNF-α, extracts 45 minutes after stimulation, lane 4 vs. lane 3", "result": "approximately 75%"}, {"measurement": "nuclear binding of NF-KB in resting FLS", "setting": "[2]; unstimulated FLS, EMSA, lane 2 vs. lane 1", "result": "not altered"}, {"measurement": "human ASM cell proliferation", "setting": "[3]", "result": "suppressed human ASM cell proliferation in a dose-dependent manner"}, {"measurement": "expression of the non-phosphorylated form of IK-B", "setting": "[4]; 1-30 μM ajulemic acid with 1 ng/ml TNF-α, after 45 minutes", "result": "dramatically increased expression of the non-phosphorylated form of IK-B"}, {"measurement": "phosphorylation of IK-B (phosphor-IK-B)", "setting": "[4]; 1-30 μM ajulemic acid, 10 minutes after stimulation with 1 ng/ml TNF-α", "result": "prevented phosphorylation of IK-B"}, {"measurement": "MMP-1 expression (mRNA, Northern blot)", "setting": "[5]", "result": "downregulates MMP-1 expression in a dose-dependent manner"}]}]}
